Experimental findings from US20230416248A1, “COMPOUNDS AND USES THEREOF” (Foghorn Therapeutics Inc., priority 2020, published 2023) are described below.

Where two headings read alike, the source gives them in different places.

One experiment addresses T1, BRM (Homo sapiens, UniProt P51531).
T1 construct: made in house; host or cells: High Five insect cells
Briefly: ATPase catalytic activity of BRM, ADP-Glo in vitro biochemical assay. The conditions noted are these: for IC50: 30 nM BRM, 400 μM ATP; for Ratio* (BRG1 IC50 (μM) divided by BRM IC50 (μM)): selectivity ratio BRG1 IC50 / BRM IC50; for Ratio*: ratio of BRG1 IC50 to BRM IC50. Put shortly:
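ADP-Glo luminescence, after depletion of leftover ATP and conversion of ADP, reported the activity. The 1 h room-temperature reaction held 400 μM ATP, 20 nM salmon sperm DNA and 30 nM BRM in 20 mM Tris pH 8, 20 mM MgCl2, 50 mM NaCl, 0.1% Tween-20, 1 mM DTT.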
In general terms: In ADP-Glo the light output rises with the ADP produced.

For the next experiment, the target named is T2, BRG-1 (Homo sapiens, UniProt P51532).
T2 construct: made in house; host or cells: High Five insect cells
Nature of the experiment: ATPase catalytic activity of BRG-1, ADP-Glo in vitro biochemical assay. To be noted: 30 nM BRG-1, 400 μM ATP, read-out: BRG1 IC50. In a few lines: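 In this in vitro format, BRG-1 hydrolysis product ADP is detected via a two-step ADP-Glo workup (ATP removal, then ADP-to-ATP conversion with luciferase detection) followed by a luminescence read.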

Setting [1] is: ATPase catalytic activity, ADP-Glo.

T2 sequence (P51532 whole entry): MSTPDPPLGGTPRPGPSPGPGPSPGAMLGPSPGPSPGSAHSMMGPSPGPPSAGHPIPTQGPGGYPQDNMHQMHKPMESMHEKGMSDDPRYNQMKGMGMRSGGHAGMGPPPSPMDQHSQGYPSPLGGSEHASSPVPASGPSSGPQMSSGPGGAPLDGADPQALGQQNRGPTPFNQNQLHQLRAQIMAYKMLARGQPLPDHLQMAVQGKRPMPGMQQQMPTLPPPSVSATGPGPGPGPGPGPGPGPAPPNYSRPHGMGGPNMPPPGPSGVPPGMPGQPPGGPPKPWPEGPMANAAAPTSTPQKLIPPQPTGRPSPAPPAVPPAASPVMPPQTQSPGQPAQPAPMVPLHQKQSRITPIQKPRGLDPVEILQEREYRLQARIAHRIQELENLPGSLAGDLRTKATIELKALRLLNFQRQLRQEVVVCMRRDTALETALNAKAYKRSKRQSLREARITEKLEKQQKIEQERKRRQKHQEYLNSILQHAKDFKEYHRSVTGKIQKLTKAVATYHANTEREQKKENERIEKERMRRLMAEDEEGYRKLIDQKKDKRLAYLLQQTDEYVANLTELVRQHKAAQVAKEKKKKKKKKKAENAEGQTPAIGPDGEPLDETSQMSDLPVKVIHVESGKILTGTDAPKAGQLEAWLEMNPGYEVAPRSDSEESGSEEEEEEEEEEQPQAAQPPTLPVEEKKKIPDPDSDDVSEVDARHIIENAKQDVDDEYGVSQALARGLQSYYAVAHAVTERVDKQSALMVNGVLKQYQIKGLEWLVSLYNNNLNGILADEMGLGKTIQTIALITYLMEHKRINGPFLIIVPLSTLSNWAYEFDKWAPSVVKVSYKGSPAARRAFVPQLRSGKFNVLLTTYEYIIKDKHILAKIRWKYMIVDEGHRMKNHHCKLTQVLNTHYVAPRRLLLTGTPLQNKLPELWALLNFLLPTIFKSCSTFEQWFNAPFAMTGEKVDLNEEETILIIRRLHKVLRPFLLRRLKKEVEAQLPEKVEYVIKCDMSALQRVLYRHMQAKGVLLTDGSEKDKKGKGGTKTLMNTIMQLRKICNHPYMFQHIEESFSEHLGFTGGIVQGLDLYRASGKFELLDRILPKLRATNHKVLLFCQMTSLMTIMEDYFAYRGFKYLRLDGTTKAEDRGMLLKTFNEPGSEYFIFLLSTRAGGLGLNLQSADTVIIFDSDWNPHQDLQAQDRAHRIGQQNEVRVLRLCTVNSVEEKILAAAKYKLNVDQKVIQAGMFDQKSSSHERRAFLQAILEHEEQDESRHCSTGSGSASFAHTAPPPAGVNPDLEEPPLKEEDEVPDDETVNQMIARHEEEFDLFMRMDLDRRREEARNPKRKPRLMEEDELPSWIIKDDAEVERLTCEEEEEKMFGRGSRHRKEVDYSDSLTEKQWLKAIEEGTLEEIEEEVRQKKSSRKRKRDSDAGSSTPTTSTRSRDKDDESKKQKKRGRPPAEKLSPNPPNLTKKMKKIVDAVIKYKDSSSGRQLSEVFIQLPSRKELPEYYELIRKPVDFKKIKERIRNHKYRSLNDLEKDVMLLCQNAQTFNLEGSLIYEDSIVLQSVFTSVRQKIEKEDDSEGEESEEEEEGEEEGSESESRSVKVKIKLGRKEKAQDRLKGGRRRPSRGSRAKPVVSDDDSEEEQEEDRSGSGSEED
T1 sequence (P51531 whole entry): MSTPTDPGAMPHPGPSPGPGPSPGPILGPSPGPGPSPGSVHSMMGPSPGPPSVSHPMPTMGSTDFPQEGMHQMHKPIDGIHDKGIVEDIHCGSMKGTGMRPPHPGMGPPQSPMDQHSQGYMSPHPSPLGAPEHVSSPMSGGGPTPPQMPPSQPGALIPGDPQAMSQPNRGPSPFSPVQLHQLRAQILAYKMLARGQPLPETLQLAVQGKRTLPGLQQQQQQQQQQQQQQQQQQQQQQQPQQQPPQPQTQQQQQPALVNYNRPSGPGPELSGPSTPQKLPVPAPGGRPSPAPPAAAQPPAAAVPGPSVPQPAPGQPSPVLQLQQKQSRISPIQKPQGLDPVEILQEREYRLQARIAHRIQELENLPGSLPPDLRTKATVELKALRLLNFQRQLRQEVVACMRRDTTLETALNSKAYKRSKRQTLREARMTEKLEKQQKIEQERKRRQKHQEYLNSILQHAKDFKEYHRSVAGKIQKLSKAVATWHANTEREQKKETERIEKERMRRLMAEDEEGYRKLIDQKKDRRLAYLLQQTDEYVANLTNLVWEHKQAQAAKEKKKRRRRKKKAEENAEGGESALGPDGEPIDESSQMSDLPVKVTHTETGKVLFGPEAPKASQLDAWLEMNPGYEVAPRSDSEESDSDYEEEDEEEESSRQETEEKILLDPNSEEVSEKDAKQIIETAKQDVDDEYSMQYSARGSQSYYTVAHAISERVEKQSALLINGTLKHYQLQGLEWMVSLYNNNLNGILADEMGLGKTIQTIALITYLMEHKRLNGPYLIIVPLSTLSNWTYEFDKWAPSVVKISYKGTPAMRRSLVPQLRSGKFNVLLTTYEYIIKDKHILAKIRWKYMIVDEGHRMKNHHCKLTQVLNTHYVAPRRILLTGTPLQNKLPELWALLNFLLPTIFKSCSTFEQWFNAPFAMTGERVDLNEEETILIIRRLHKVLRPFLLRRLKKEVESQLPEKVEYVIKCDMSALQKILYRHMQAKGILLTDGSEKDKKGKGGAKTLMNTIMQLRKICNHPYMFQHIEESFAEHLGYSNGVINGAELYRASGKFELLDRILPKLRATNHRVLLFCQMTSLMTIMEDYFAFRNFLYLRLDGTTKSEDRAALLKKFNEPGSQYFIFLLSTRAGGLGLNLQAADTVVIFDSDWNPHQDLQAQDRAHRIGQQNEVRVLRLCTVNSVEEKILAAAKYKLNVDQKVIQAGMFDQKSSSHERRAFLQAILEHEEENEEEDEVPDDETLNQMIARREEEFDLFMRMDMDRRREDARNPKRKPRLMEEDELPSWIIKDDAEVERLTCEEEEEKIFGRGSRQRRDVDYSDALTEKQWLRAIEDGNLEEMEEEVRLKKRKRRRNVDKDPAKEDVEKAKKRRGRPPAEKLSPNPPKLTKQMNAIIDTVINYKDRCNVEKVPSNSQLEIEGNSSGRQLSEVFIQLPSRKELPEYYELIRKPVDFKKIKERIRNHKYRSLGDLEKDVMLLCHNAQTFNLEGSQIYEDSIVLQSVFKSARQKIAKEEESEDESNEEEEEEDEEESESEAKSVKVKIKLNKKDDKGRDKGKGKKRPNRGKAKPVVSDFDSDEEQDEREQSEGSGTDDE

A word on the IC50: it is the concentration needed to halve the response being measured. In the case of `O=C(NCc1cc2nc(-c3cccc(N4CCC(F)CC4)n3)ccc2cn1)c1ccc2c(c1)S(=O)(=O)CCOC2` [Compound 186], the values for the IC50 on BRM (ADP-Glo ATPase assay) and on BRG-1 (ADP-Glo ATPase assay) were 22.1 nM and 254 nM, respectively. In addition, the “Ratio* (BRG1 IC50 (μM) divided by BRM IC50 (μM))” value on BRM came out at 11.50.

As for `O=C(NCc1cc2nc(-c3ccnc([C@H]4CC4(F)F)n3)ccc2cn1)c1ccc2c(c1)S(=O)(=O)CCOC2` [Compound 217], the figures for the IC50 at BRM (ADP-Glo ATPase assay) and on BRG-1 (ADP-Glo ATPase assay) were 61.2 nM and 965 nM, respectively. For the same compound, the “Ratio* (BRG1 IC50 (μM) divided by BRM IC50 (μM))” value at BRM worked out at 15.77.

Take `Cc1cnc2c(c1)OCCN2c1ccc2cnc(CNC(=O)c3cc(F)c4c(c3)S(=O)(=O)[C@@H](C)COC4)cc2n1` [Compound 554]: the IC50 was determined as 8.6 nM at BRM (setting [1]) and 83.1 nM at BRG-1 (setting [1]). At BRM, the “Ratio*” value amounted to 9.64.

In the case of `Cn1ccc2ccc(-c3ccc4cnc(CNC(=O)c5ccc6c(c5)S(=O)(=O)CCOC6)cc4n3)nc21` [Compound 136], the concentration for half-maximal inhibition (IC50) against BRM (ADP-Glo ATPase assay) was determined as 33.4 nM; on BRG-1 (ADP-Glo ATPase assay), 239 nM. Moreover, at BRM, the “Ratio* (BRG1 IC50 (μM) divided by BRM IC50 (μM))” value was 7.15.

For `COCCc1cnc2c(c1)CCCN2c1ccc2cnc(CNC(=O)c3ccc4c(c3)S(=O)(=O)CCOC4)cc2n1` [Compound 510], the IC50 at BRM (setting [1]) was 13.9 nM; on BRG-1 (setting [1]), 142 nM. Further, the “Ratio*” value on BRM is 10.20.

As for `COc1ccc2c(n1)N(c1ccc3cnc(CNC(=O)c4ccc5c(c4)S(=O)(=O)CCOC5)cc3n1)CCC2` [Compound 568], the IC50 came to 106 nM on BRM (setting [1]) and 1060 nM at BRG-1 (setting [1]). Further, at BRM, the “Ratio*” value was 9.95.

For the compound `Cc1ccc(C(=O)NCc2cc3nc(-c4cncc(C5CC5)n4)ccc3cn2)cc1S(=O)(=O)C(C)C` [Compound 279], the results for the IC50 against BRM (ADP-Glo ATPase assay) and on BRG-1 (ADP-Glo ATPase assay) were 529 nM and 5000 nM, respectively. For the same compound, the “Ratio* (BRG1 IC50 (μM) divided by BRM IC50 (μM))” value on BRM amounted to 9.45.

With `CS(=O)(=O)c1cc(C(=O)NCc2cc3nc(-c4cccc(N5CC[C@H]6OCC[C@@H]6C5)n4)ccc3cn2)ccc1Cl` [Compound 98], the IC50 was 33 nM against BRM (ADP-Glo ATPase assay) and 257 nM at BRG-1 (ADP-Glo ATPase assay). Besides, on BRM, the “Ratio* (BRG1 IC50 (μM) divided by BRM IC50 (μM))” value worked out at 7.80.

`O=C(NCc1cc2nc(N3CCCc4c(OC5CC5)ccnc43)ccc2cn1)c1ccc2c(c1)S(=O)(=O)CCOC2` [Compound 677]: the figures for the IC50 against BRM (setting [1]) and on BRG-1 (setting [1]) were 3.8 nM and 35.7 nM, respectively. In addition, the “Ratio*” value at BRM was 9.28.

As for `CC1COCc2ccc(C(=O)NCc3cc4nc(N5CCOc6cccnc65)ccc4cn3)cc2S1(=O)=O` (stereo not drawn) [Compound 523], the results for the IC50 on BRM (setting [1]) and on BRG-1 (setting [1]) were 11.6 nM and 181 nM, respectively. Moreover, the “Ratio*” value at BRM worked out at 15.53.

For `CCOc1nc(-c2ccc3cnc(CNC(=O)c4ccc5c(c4)S(=O)(=O)CCOC5)cc3n2)ccc1C(F)F` [Compound 489], the results for the IC50 against BRM (setting [1]) and at BRG-1 (setting [1]) were 15.9 nM and 181 nM, respectively. Further, the “Ratio*” value on BRM was determined as 11.37.

As to `O=C(NCc1cc2nc(-c3cccc(OC(F)F)n3)ccc2cn1)c1ccc2c(c1)S(=O)(=O)CCOC2` [Compound 285], the IC50 against BRM (ADP-Glo ATPase assay) was 19.3 nM; at BRG-1 (ADP-Glo ATPase assay), 497 nM. Further, the “Ratio* (BRG1 IC50 (μM) divided by BRM IC50 (μM))” value on BRM is listed as 25.69.

For `CO[C@@H](C)c1cnc2c(c1)CCCN2c1ccc2cnc(CNC(=O)c3ccc4c(c3)S(=O)(=O)CCOC4)cc2n1` [Compound 607], the results for the IC50 against BRM (setting [1]) and at BRG-1 (setting [1]) were 44.6 nM and 702 nM, respectively. The “Ratio*” value on BRM worked out at 15.74.

As for `C[C@@H]1CN(c2cccc(-c3ccc4cnc(CNC(=O)c5cnc(C(F)F)c(S(C)(=O)=O)c5)cc4n3)n2)C[C@H](C)O1` [Compound 132], the figures for the IC50 at BRM (ADP-Glo ATPase assay) and on BRG-1 (ADP-Glo ATPase assay) were 12.5 nM and 204 nM, respectively. Besides, on BRM, the “Ratio* (BRG1 IC50 (μM) divided by BRM IC50 (μM))” value came to 16.30.

On to `COc1cc2c(nc1C1CC1)N(c1ccc3cnc(CNC(=O)c4ccc5c(c4)S(=O)(=O)CCOC5)cc3n1)CCC2` [Compound 683], for which the results for the IC50 on BRM (setting [1]) and on BRG-1 (setting [1]) were 76.3 nM and 795 nM, respectively. In addition, the “Ratio*” value at BRM came out at 10.42.

Take `COc1nc(C(F)F)ccc1-c1ccc2cnc(CNC(=O)c3ccc4c(c3)S(=O)(=O)CCOC4)cc2n1` [Compound 329]: the IC50 against BRM (setting [1]) was determined as 8.6 nM; on BRG-1 (setting [1]), 130 nM. In addition, at BRM, the “Ratio*” value turned out to be 15.19.

For `CC(F)(F)COc1cccc(-c2ccc3cnc(CNC(=O)c4ccc5c(c4)S(=O)(=O)CCOC5)cc3n2)n1` [Compound 126], the IC50 is 33.5 nM on BRM (ADP-Glo ATPase assay) and 295 nM at BRG-1 (ADP-Glo ATPase assay). Also, the “Ratio* (BRG1 IC50 (μM) divided by BRM IC50 (μM))” value on BRM is on record as 8.80.

As to `O=C(NCc1cc2nc(-c3cccc4c3CCN4C3COC3)ccc2cn1)c1ccc2c(c1)S(=O)(=O)CCOC2` [Compound 198], the half-inhibitory concentration (IC50) on BRM (ADP-Glo ATPase assay) is 222 nM; on BRG-1 (ADP-Glo ATPase assay) it was 967 nM. Moreover, the “Ratio* (BRG1 IC50 (μM) divided by BRM IC50 (μM))” value on BRM was found to be 4.34.
